# Biological target: S. aureus DNA gyrase (Staphylococcus aureus, UniProt P0A0K8+P20831)
# Assay: DNA gyrase supercoiling assay, purified gyrase and relaxed plasmid DNA kit
# Assay type: biochemical
row,IC50 [µM],Compound
1,33.6,"COc1ccc(NC(=O)CNNC(=O)c2cc(-c3ccc(Br)cc3)nc3ccccc23)cc1 [6b, 2-(2-(2-(4-Bromophenyl)quinoline-4-carbonyl)hydrazinyl)-N-(4-methoxyphenyl)acetamide]"
2,8.45,"N=C1CC(N)=NN1C(=O)c1cc(-c2ccc(Br)cc2)nc2ccccc12 [compound 10, (3-Amino-5-imino-4,5-dihydro-1H-pyrazol-1-yl)(2-(4-bromophenyl)quinolin-4-yl)methanone]"

# — article PMC10210181 (ACS Omega, 2023)
